# From US20130071495A1, “INHIBITORS OF GLYCOGEN SYNTHASE KINASE 3 FOR USE IN THERAPEUTIC METHODS AND SCREENING METHOD RELATING THERETO” (Helmholtz Zentrum Muenchen Deutsches Forschungszentrum fuer …, priority 2010, published 2013)
# Columns and labels:
# Assay type in all cases: in vivo, C57BL/6N mice
# [1] = tested on: elastase-induced emphysema model (mice); test: Immunoblotting and densitometry of SP-C in lung homogenates, elastase-induced emphysema; details: preventive approach, LiCl 200 mg/kg/day i.p. day 0-7; vehicle 0.36±0.06; p=0.0231
# Description: (§1) Six- to eight-week-old pathogen-free female C57BL/6N mice (Charles River Laboratories) were used throughout this study. All experiments were performed in accordance with the guidelines of the Ethics Committee of the University of Giessen School of Medicine and approved by the Regierungspräsidium Giessen, Hesse, Germany. Mice had free access to water and rodent laboratory chow. Pancreatic elastase was dissolved in sterile PBS and applied orotracheally (100 U/kg BW). Control mice received 80 μl sterile PBS. Lung tissues were excised and snap-frozen or inflated with 4% (m/v) paraformaldehyde in PBS (PAA Laboratories) at 21 cm H2O pressure for histological analyses.
# The WNT/β-catenin signaling pathway in lungs from C57BL/6N mice was activated via intraperitoneal injection of lithium chloride (200 mg/KG/BW/day) (22). Lithium chloride mimics members of the WNT family of signalling proteins by inhibiting the activity of GSK-3β and thus causes intracellular accumulation of β-catenin, a feature associated with the canonical WNT/β-catenin signalling pathway (23). Under these circumstances, β-catenin can enter the nucleus and influence the expression of target genes. Lithium chloride was diluted in sterile water and fresh stock was prepared for every injection. […]
# [2] = tested on: elastase-induced emphysema model (mice); test: Histological and immunohistochemical assessment of lung sections, elastase-induced emphysema
# Description: as §1
# (§2) The WNT/β-catenin signaling pathway in lungs from C57BL/6N mice was activated via intraperitoneal injection of lithium chloride (200 mg/KG/BW/day) (22). Lithium chloride mimics members of the WNT family of signalling proteins by inhibiting the activity of GSK-3β and thus causes intracellular accumulation of β-catenin, a feature associated with the canonical WNT/β-catenin signalling pathway (23). Under these circumstances, β-catenin can enter the nucleus and influence the expression of target genes. Lithium chloride was diluted in sterile water and fresh stock was prepared for every injection. Mice were treated on a daily basis, from day 0, the day of elastase subjection to day 7 in the preventive regime, and from day 7 to 14 in the therapeutic regime, respectively. The following scheme illustrates preventive and therapeutic activation of WNT/β-catenin signaling in experimental emphysema:
# Mice were subjected to a single orotracheal application of elastase, which led to the development of pulmonary emphysema from day 1 to 14. WNT/β-catenin activation by treatment with lithium chloride (LiCl) was initiated on day of elastase subjection to day 7 (referred to as preventive approach), or from day 7 to day 14 (referred to as therapeutic approach), using the indicated concentrations (daily application intraperitonal (i.p.), n=6 for each group). […]
# [3] = tested on: elastase-induced emphysema model (mice); test: Collagen assay (Sircol) in whole-lung homogenates, elastase-induced emphysema; details: preventive approach, LiCl 200 mg/kg/day i.p. day 0-7; vehicle 29.6±4.1; p=0.042
# Description: as §1
# The WNT/β-catenin signaling pathway in lungs from C57BL/6N mice was activated via intraperitoneal injection of lithium chloride (200 mg/KG/BW/day) (22). Lithium chloride mimics members of the WNT family of signalling proteins by inhibiting the activity of GSK-3β and thus causes intracellular accumulation of β-catenin, a feature associated with the canonical WNT/β-catenin signalling pathway (23). […]
# Whole-mouse lung homogenates were used for in vivo analysis. Total collagen content was determined using the Sircol Collagen Assay kit (Biocolor). […] Samples and collagen standards were then read at 540 nm in a spectrophotometer (Bio-Rad). Collagen concentrations were calculated using a standard curve with acid-soluble type I collagen.
# [4] = tested on: elastase-induced emphysema model (mice); test: qRT-PCR of ECM and alveolar epithelial cell markers in lungs, elastase-induced emphysema; details: preventive approach, day 7
# Description: as §1, §2
# Mice were subjected to a single orotracheal application of elastase, which led to the development of pulmonary emphysema from day 1 to 14. WNT/β-catenin activation by treatment with lithium chloride (LiCl) was initiated on day of elastase subjection to day 7 (referred to as preventive approach), or from day 7 to day 14 (referred to as therapeutic approach), using the indicated concentrations (daily application intraperitonal (i.p.), n=6 for each group).
# Total RNA was extracted using Qiagen extraction kits according to the manufacturer's protocol, and cDNAs were generated by reverse transcription using SuperScript™ II (Invitrogen). Quantitative (q)RT-PCR was performed using fluorogenic SYBR Green and the Sequence Detection System Fast 7500 (PE Applied Biosystems). HPRT1 and PBGD, ubiquitously and equally expressed genes free of pseudogenes, were used as a reference gene in all human and mouse qRT-PCR reactions, respectively. PCR was performed using the primers listed in Table 1 and 2, respectively, at a final concentration of 200 nM. Relative transcript abundance of a gene is expressed in ΔCt values (ΔCt=ct^reference−Ct^target). Relative changes in transcript levels compared to controls are ΔΔCt values (ΔΔCt=ΔCt^treated−ΔCt^control). All ΔΔCt values correspond approximately to the binary logarithm of the fold change as mentioned in the text. When relative transcript abundance is of information, expression levels are given in ΔCt levels.
# [5] = tested on: elastase-induced emphysema model (mice); test: Quantitative morphometry of lung structure in elastase-induced emphysema
# Description: as §1
# The WNT/β-catenin signaling pathway in lungs from C57BL/6N mice was activated via intraperitoneal injection of lithium chloride (200 mg/KG/BW/day) (22). […]
# To assess air space enlargement, the mean chord length (MCL) was quantified by superimposing a line grid on the images of lung sections at a magnification of 200×. Points on the lines of the grid hitting the air spaces, and intercepts of the lines with alveolar septa were counted to calculate MCL according to the formula: MCL=ΣPair×L(p)/(Isepta/2) (μm), where ΣPair is the sum of the points of the grid overlaid air spaces, L(p) is the line length per point and Isepta is the sum of the intercepts of alveolar septa with the lines of the grid. For the morphometric assessment of alveolar surface area per unit volume of lung parenchyma (Sv) were determined by counting the number of points that fell on alveolar septal tissue and alveolar space, and by counting the number of intercepts with alveolar septal surface at a magnification of 200× according to the following formulas: Sv=2×Isepta/(ΣPpar×L(p)/3) (1 μm), where ΣPpar is the sum of the points of hitting parenchyma, L(p) is the line length per test point in μm, and Isepta the sum of the intercepts with alveolar septa.
structure (smiles),measurement,setting,value
"[Cl-].[Li+] [LiCl, Lithium chloride]",SP-C protein expression (immunoblot densitometry),[1],0.62±0.05
same,"immunohistochemical staining for SP-C, WNT3a and β-catenin","[2]; preventive approach, compared with vehicle-treated mice",increased appearance of SP-C-positive cells with enhanced staining of the WNT/β-catenin signaling component WNT3a as well as nuclear β-catenin staining
same,histological assessment of the lung structure,"[2]; preventive approach, day 0-7, H&E staining",marked attenuated emphysematous changes
same,histological assessment of the lung structure,"[2]; therapeutic approach, day 7-14, H&E staining",marked attenuation of emphysema along with restored lung architecture
same,total collagen content in lung homogenates,[3],16.1 µg/mL
same,"cadherin 1 (cdh1) mRNA, log-fold change LiCl-treated versus untreated lungs",[4]; p=0.003,0.97±0.20
same,"aquaporin 5 (aqp5) mRNA, log-fold change LiCl-treated versus untreated lungs",[4]; p=0.025,0.63±0.18
same,"thyroid transcription factor 1 (ttf1) mRNA, log-fold change LiCl-treated versus untreated lungs",[4]; p=0.033,1.20±0.30
same,"SP-C mRNA, log-fold change LiCl-treated versus untreated lungs",[4]; p=0.0475,−1.21±0.42
same,"mRNA of type I collagen α1 (col1a1), log-fold change LiCl-treated versus untreated lungs",[4]; p=0.0496,−0.86±0.33
same,"forkhead box P2 (foxp2) mRNA, log-fold change LiCl-treated versus untreated lungs",[4]; p=0.146,1.38±0.59
same,mean chord length,"[5]; preventive approach, LiCl 200 mg/kg/day i.p. day 0-7, vehicle 109.9±7.8, p=0.0021",74.0±6.6 μm
same,surface area,"[5]; preventive approach, LiCl 200 mg/kg/day i.p. day 0-7, vehicle 317.8±27.5, p=0.0067",560.7±55.7 cm^2
same,mean chord length,"[5]; therapeutic approach, LiCl 200 mg/kg/day i.p. day 7-14, vehicle 106.4±2.3, p=0.021",85.3±2.5
